From US20080194585A1, “Fungicidal Pyrazine Derivatives” (priority 2005, published 2008)
Marks after values point to notes of the source that are not given here.

Key:
Details in all cases: 100 = 100% disease control, 0 = no control
Plasmopara viticola = assay: Test D: grape downy mildew, spray after inoculation of grape seedlings; type: in vivo
From the text: Upon removal, disease ratings were made. […] A dash (-) indicates no test results.

Phytophthora infestans = assay: whole plant or invertebrate; type: in vivo
Septoria tritici = assay: Test J: wheat leaf blotch, preventive spray on wheat seedlings; type: in vivo
From the text: A dash (-) indicates no test results.

fusarium graminearium = assay: Test I: wheat head scab, preventive spray on wheat seedlings
Protocol: (the causal agent of wheat head scab) and incubated in a saturated atmosphere at 20° C. for 72 h, and then moved to a growth chamber at 22° C. for 5 days, after which disease ratings were made.

[1] = tested on: Puccinia recondita f. sp. tritici; assay: Test K: wheat leaf rust, preventive spray on wheat seedlings
Botrytis cinerea = assay: Test E: tomato botrytis, preventive spray on tomato seedlings
Septoria nodorum = assay: Test H: wheat glum blotch, preventive spray on wheat seedlings
Protocol: (the causal agent of wheat glum blotch) and incubated in a saturated atmosphere at 20° C. for 48 h, and then moved to a growth chamber at 22° C. for 5 days, after which disease ratings were made.

[2] = tested on: Erysiphe graminis f. sp. tritici; assay: Test L: wheat powdery mildew, preventive spray on wheat seedlings
Sclerotinia sclerotiorum = assay: Test C: cucumber white mold, preventive spray on cucumber seedlings
Pythium aphanidermatum = assay: Test A: bluegrass pythium blight, preventive spray on bluegrass seedlings
Rhizoctonia oryzae = assay: Test G: turf brown patch, preventive spray on creeping bent grass seedlings
Protocol: (the causal agent of turf brown patch) and incubated in a saturated atmosphere at 27° C. for 24 h, and then moved to a growth chamber at 27° C. for 5 days, after which disease ratings were made.

[3] = tested on: Colletotrichum orbiculare; assay: Test B: cucumber Colletotrichum anthracnose, preventive spray on cucumber seedlings

SMILES | Test D disease control rating (Plasmopara viticola; 40 ppm (marked *)) | Test F disease control rating (Phytophthora infestans; 40 ppm (marked *)) | Test J disease control rating (Septoria tritici; 40 ppm (marked *)) | Test I disease control rating (fusarium graminearium; 40 ppm (marked *)) | Test K disease control rating ([1]; 40 ppm (marked *)) | Test E disease control rating (Botrytis cinerea; 40 ppm (marked *)) | Test H disease control rating (Septoria nodorum; 40 ppm (marked *)) | Test L disease control rating ([2]; 40 ppm (marked *)) | Test C disease control rating (Sclerotinia sclerotiorum; 40 ppm (marked *)) | Test A disease control rating (Pythium aphanidermatum; 40 ppm (marked *)) | Test G disease control rating (Rhizoctonia oryzae; 40 ppm (marked *)) | Test B disease control rating ([3]; 40 ppm (marked *)) | other results
Cc1ccn(-c2nc(Cl)c(-c3c(F)cccc3F)n(Cc3ccccc3F)c2=O)n1 [compound 280] | 0* % | 0* % | 100* % | 0* % | 98* % | 99* % | 96* % | 69* % | 0* % | 0* % | 0* % | 57* % | –
CC[C@H](C)Cn1c(-c2ccc(F)cc2Cl)c(Br)nc(-n2cccn2)c1=O [compound 281] | 0* % | 0* % | 100* % | 0* % | 100* % | 100* % | 100* % | 100* % | 0* % | 0* % | 47* % | 100* % | –
CC[C@H](C)Cn1c(-c2ccc(F)cc2Cl)c(Br)nc(-n2ccc(C)n2)c1=O [compound 282] | 0* % | 0* % | 100* % | 0* % | 100* % | 100* % | 99* % | 100* % | 0* % | 0* % | 0* % | 100* % | –
CC[C@H](C)Cn1c(-c2ccc(F)cc2Cl)c(Br)nc(N2CCC=N2)c1=O [compound 283] | 0* % | 47* % | 100* % | 0* % | 96* % | 98* % | 0* % | 97* % | 0* % | 0* % | 0* % | 94* % | –
CCCCn1c(-c2ccc(F)cc2Cl)c(Br)nc(-n2cccn2)c1=O [compound 284] | 0* % | 16* % | 100* % | 0* % | 95* % | 94* % | 99* % | 96* % | 0* % | 0* % | 0* % | 0* % | –
CCCCn1c(-c2ccc(F)cc2Cl)c(Br)nc(-n2ccc(C)n2)c1=O [compound 285] | 0* % | 0* % | 100* % | 0* % | 89* % | 99* % | 85* % | 92* % | 0* % | 0* % | 0* % | 0* % | –
O=c1c(-n2cccn2)nc(Cl)c(-c2ccccc2Cl)n1Cc1ccccc1 [compound 288] | – | – | 100* % | – | – | – | – | – | – | – | – | – | Test D disease control rating (Plasmopara viticola; 200 ppm): 0%; Test F disease control rating (Phytophthora infestans; 200 ppm): 0%; Test I disease control rating (fusarium graminearium; 200 ppm): 0%; Test K disease control rating ([1]; 200 ppm): 91%; Test E disease control rating (Botrytis cinerea; 200 ppm): 100%; Test H disease control rating (Septoria nodorum; 200 ppm): 100%; Test L disease control rating ([2]; 200 ppm): 91%; Test C disease control rating (Sclerotinia sclerotiorum; 200 ppm): 0%; Test A disease control rating (Pythium aphanidermatum; 200 ppm): 0%; Test G disease control rating (Rhizoctonia oryzae; 200 ppm): 0%; Test B disease control rating ([3]; 200 ppm): 91%
Cc1ccn(-c2nc(Cl)c(C(C)C)n(CC(C)C)c2=O)n1 [compound 289] | – | – | – | – | – | – | – | – | – | – | – | – | Test D disease control rating (Plasmopara viticola; 200 ppm): 0%; Test F disease control rating (Phytophthora infestans; 200 ppm): 57%; Test J disease control rating (Septoria tritici; 200 ppm): 96%; Test I disease control rating (fusarium graminearium; 200 ppm): 0%; Test K disease control rating ([1]; 200 ppm): 100%; Test E disease control rating (Botrytis cinerea; 200 ppm): 100%; Test H disease control rating (Septoria nodorum; 200 ppm): 0%; Test L disease control rating ([2]; 200 ppm): 79%; Test C disease control rating (Sclerotinia sclerotiorum; 200 ppm): 0%; Test A disease control rating (Pythium aphanidermatum; 200 ppm): 0%; Test G disease control rating (Rhizoctonia oryzae; 200 ppm): 95%; Test B disease control rating ([3]; 200 ppm): 0%
